From patent publication US11266647B2, “Method for increasing cell proliferation in pancreatic beta cells, treatment method, and composition” (ICAHN SCHOOL OF MEDICINE AT MOUNT SINAI, priority 2016, dated 2022) come the findings set out here.

Molecules are shown by their SMILES. “Also recorded” adds a separate entry of the source.

In assay [1] the test system is human beta cells. As to the kind of experiment: Ki67 labeling of insulin-positive cells in dispersed human cadaveric islets. The conditions noted are these: for Ki67 labeling with other DYRK1A inhibitors in combination therapy: DYRK1A inhibitor other than harmine, with TGFβSF inhibitor. Type of assay: cell-based. The text has this:
(§1) Primary antisera were: BrdU (ab6326, Abcam), Ki67 (RM-9106-sl, Thermo Scientific, and MIB1, DAKO), p-Histone-3 (06-570, Millipore), insulin (A0564, DAKO), p-yH2AX (MA1-2022, Thermo Scientific), NKX6.1 (F55A10-c, University of Iowa), PDX1 (07-696, Millipore), MAFA (Ab26405, Abcam), Glucagon (2760s, Cell Signaling), Somatostatin (Sc-20999, Santa Cruz), Pancreatic Polypeptide (A0619, DAKO), and CK19 (Ab52625, Abcam). Species-specific mouse Alexa Fluor 488 (A-11029, Life Technologies), rat Alexa Fluor 594 (A-11007, Life Technologies), rabbit Alexa Fluor 488 (A11037, Life Technologies) or guinea pig Alexa Fluor 488 (A-11073, Life Technologies) secondary antisera were selected as appropriate.

Assay [2] has as its system mouse beta cells. As to the kind of experiment: Mouse pancreas study: beta cell Ki-67/insulin after 7 days i.p. treatment. Type of assay: in vivo, C57BL/6N mice. The conditions noted are these: C57BL6N mice, i.p. daily 7 days, harmine 10 mg/kg, GW788388 30 mg/kg. The method, then: (§2) On day seven, treatment was begun exactly as in FIG. 9A for seven days.
Male C57BL/6N mice (12 week-old) received vehicle (saline), 10 mg kg^−1 harmine HCl, 30 mg kg^−1 GW788388 or the combination of harmine and GW788388 by intraperitoneal injection daily for 7 days. Mice were sacrificed on day 7, pancreata harvested, fixed in 10% neutral buffered formalin, paraffin embedded, and sectioned. […] A minimum of 2,000 beta cells per pancreas were counted. Investigators were blinded as to group assignments.
(§3) To evaluate the effects of harmine and TGFβ inhibitor in vivo, C57BL6N mice were administered vehicle ([…]), harmine, GW788388, or the combination of harmine plus GW788388 intraperitoneally for seven days, sacrificed, and evaluated for insulin and Ki67. […] Next, human cadaveric islets were transplanted into NOD-SCID mice.

Assay [3] has as its system cell cycle activators and cell cycle inhibitors. As to the kind of experiment: qPCR of cell cycle activators and inhibitors in whole human islets.
Description: Gene expression in dispersed islets was analyzed by real-time PCR performed on an ABI 7500 System.
Reasoning that harmine and harmine-TGFβ inhibitors (and DYRK1A and SMADs, respectively) must ultimately orchestrate cell cycle entry via cell cycle activators and cell cycle inhibitors, gene expression of cell cycle activators and inhibitors was examined in whole islets treated with vehicle, harmine, TGFβ inhibitor or the harmine-TGFβ inhibitor combination (FIGS. 6A-6B).
Assay [4] concerns human beta cells. The assay is described as follows: Ki67 immunolabeling in human islets with adenoviral silencing or overexpression plus drug. Type of assay: cell-based. The method, then:
(§4) The immunoblots are representative of separate experiments in human islets from three different donors. […] Ad.shLacZ indicates a sh-adenovirus for the Ad.shDYRK1A.
Unless otherwise described, all transductions were performed using 150 moi for one hour, and studies performed 72 hours later. […] Adenoviruses encoding human SMAD6 or SMAD7 were prepared as described using cDNAs encoding SMAD6 and SMAD7 obtained from Harvard PlasmID Database.
as §1

Assay [5] deals with beta cells of T2D islets. The assay is described as follows: Ki67 immunolabeling in islets from donors with Type 2 diabetes. The following applies: harmine alone.
Excerpt: Islets from normal and Type 2 diabetes adult cadaveric pancreas donors were obtained from the NIH/NIDDK-supported Integrated Islet Distribution Program and from the Alberta Diabetes Institute. Depending on the experiments performed, islets were used either as intact islets, or were first dispersed with Accutase (Sigma, St. Louis, Mo.) onto coverslips.
The subject of assay [6] is SMAD signaling. The assay is described as follows: Immunoblots of SMADs in whole human islets. Type of assay: cell-based.
Excerpt: as §4
Primary antisera employed were: SMAD2/3 (Cell Signaling, 8685p), p-SMAD3 (Abcam, ab52903), SMAD4 (Sc-7966, Santa Cruz), SMAD1/5/9 (ab66737, Abcam), p15INK4 (Abcam, ab53034), p16INK4a (Sc-468, Santa Cruz), p21CIP (556430, BD), p57CIP2 (2557s, Cell Signaling) and GAPDH (Sc-25778, Santa Cruz).
To ascertain whether the harmine-TGFβSF inhibitor combination affected SMAD signaling, human islets were incubated with harmine alone or in combination with two TGFβSF inhibitors: LY or ALK5 (FIG. 5A).

Assay [7] concerns TGFβ superfamily members. As to the kind of experiment: RNAseq of whole human islets. Type of assay: cell-based.
The subject of assay [8] is human beta cells. The assay is described as follows: Human islet transplant under renal capsule of NOD-SCID mice: beta cell Ki-67/insulin. Type of assay: in vivo, human islets in NOD-SCID mice. The following applies: i.p. daily 7 days, harmine 10 mg/kg, GW788388 30 mg/kg. The method, then: as §2
Mice were allowed to recover for 7 days and then treated with vehicle (saline), 10 mg kg-1 harmine HCl, 30 mg kg-1 GW788388 or the combination of harmine and GW788388 by intraperitoneal injection daily for 7 days. Mice were sacrificed on day 7, renal grafts harvested, fixed in 10% neutral buffered formalin, paraffin embedded and sectioned.
as §3

`CCN1/C(=C/C(C)=O)Sc2ccc(O)cc21` [INDY]: the “Ki67 labeling with other DYRK1A inhibitors in combination therapy” value in assay [1] is recorded as “beneficial effects”.

For the compound `COc1ccc2c(c1)[nH]c1c(C)nccc12` [harmine], in assay [2], the “mouse beta cell proliferation in vivo (Ki67/insulin)” value was “induced beta cell proliferation”. The “expression of cell cycle activators (e.g., CDK1, CCNA1, CCNE2, CDC25A)” value in assay [3] (harmine 10 μM, LY364947 5 μM, qPCR) is recorded as “induced expression”. In addition, the “cell cycle inhibitor expression other than CDKN1C” value in assay [3] (harmine alone) is “modest and limited effects”. Further, in assay [3] (harmine alone, qPCR), the “decline of CDKN1C (p57KIP2) expression” value is reported as about 50%. Further, the “harmine-induced proliferation with overexpression of SMADs 6 and 7” value in assay [4] (adenoviral overexpression, 100 moi) is given as “markedly enhanced”. Also, the “harmine-induced proliferation with silencing of SMADs 2, 3, and 4” value in assay [4] (adenoviral silencing, 150 moi each) is “further enhanced”. In addition, the “proliferation with silencing of CDKN1A and/or CDKN1C” value in assay [4] (harmine 10 μM) is “robust human beta cell proliferation”. Moreover, the “Ki67 immunolabeling in T2D islets” value in assay [5] is given as “increased Ki67 immunolabeling to the same degree observed in non-diabetic islet donors”. Further, in assay [6], the “p-SMAD3 (SMAD3 phosphorylation), immunoblot” value (“p-SMAD3” below) was “reductions; also recorded: reduced” and the “total SMAD1/5/9, immunoblot” value was “reductions; also recorded: reduced”. In assay [7] (Donor 1), the “BMP1 (RNAseq)” value amounted to 4 FPKM, the “BMP5 (RNAseq)” value is 26 FPKM, the “GDF11 (RNAseq)” value stood at 3 FPKM and the “INHA (RNAseq)” value came out at 1 FPKM. In assay [7] (Donor 1), the “TGFB2 (RNAseq)” value amounted to 3 FPKM, the “TGFBR1 (RNAseq)” value is listed as 9 FPKM and the “TGFBR2 (RNAseq)” value is listed as 3 FPKM. For the same compound, the “TGFB1 (RNAseq)” value in assay [7] (Donor 1, row r7) stood at 24 FPKM. Moreover, the “TGFB1 (RNAseq), second line so named” value in assay [7] (Donor 1, row r11) was 62 FPKM. Also, in assay [7] (Donor 2), the “BMP1 (RNAseq)” value is reported as 3 FPKM, the “BMP5 (RNAseq)” value was determined as 20 FPKM, the “GDF11 (RNAseq)” value was 3 FPKM and the “INHA (RNAseq)” value is recorded as 1 FPKM. In addition, in assay [7] (Donor 2), the “TGFB2 (RNAseq)” value was 2 FPKM, the “TGFBR1 (RNAseq)” value came to 8 FPKM and the “TGFBR2 (RNAseq)” value is 3 FPKM. In addition, in assay [7] (Donor 2, row r7), the “TGFB1 (RNAseq)” value was found to be 19 FPKM. Also, in assay [7] (Donor 2, row r11), the “TGFB1 (RNAseq), second line so named” value was 22 FPKM. Besides, in assay [7] (RNAseq), the “changes in TGFβSF members on harmine treatment of human islets” value is “notable changes”. Besides, the “human beta cell proliferation in vivo in transplanted islets” value in assay [8] is “increased this rate”.

Turning to `O=C(NC1CCOCC1)c1ccc(-c2cc(-c3c[nH]nc3-c3ccccn3)ccn2)cc1` [GW788388, 4-(4-(3-(pyridin-2-yl)-1H-pyrazol-4-yl)pyridin-2-yl)-N-(tetrahydro-2H-pyran-4-yl)benzamide], the “mouse beta cell proliferation in vivo (Ki67/insulin)” value in assay [2] is reported as “induced beta cell proliferation”. Also, the “proliferation with adenoviral silencing of DYRK1A” value in assay [4] (Ad.shDYRK1A plus TGFβ inhibitor) is listed as “markedly accentuates proliferation”. The “human beta cell proliferation in vivo in transplanted islets” value in assay [8] is recorded as “had no effect”.

With `O=C1NC(Nc2ccccc2)=N/C1=C\c1ccc2c(c1)OCO2` [leucettine-41], the “activation of human beta cell proliferation” value in assay [1] (DYRK1A inhibitor) is given as “able to activate human beta cell proliferation”. Further, the “Ki67 labeling with other DYRK1A inhibitors in combination therapy” value in assay [1] is on record as “beneficial effects”.

On to `Cc1cccc(-c2n[nH]cc2-c2ccc3ncccc3n2)n1` [ALK5 inhibitor, 2-(3-(6-Methylpyridin-2-yl)-1H-pyrazol-4-yl)-1,5 napththyridine], for which the “p-SMAD3” value in assay [6] is “further reduced”.

For `c1ccc(-c2n[nH]cc2-c2ccnc3ccccc23)nc1` [LY364947, 4-[3-(2-Pyridinyl)-1H-pyrazol-4-yl]-quinoline], the “p-SMAD3” value in assay [6] is recorded as “further reduced”.
